Measured values published in patent US20240408093A1, “HETEROBIFUNCTIONAL COMPOUNDS AND THEIR USE IN TREATING DISEASE” (HALDA THERAPEUTICS OPCO, INC., priority 2022, published 2024).

How the values were obtained:
[1] = molecular target: T1, full-length BTK (amino acids 1-659) (Homo sapiens, UniProt Q06187); test: KdELECT binding assay, BTK
T1 construct: full-length BTK (amino acids 1-659); host or cells: mammalian cells (HEK-293)
Experimental: Exemplary compounds were tested for ability to bind to full-length BTK (amino acids 1-659; Accession Number NP_000052.1) expressed from mammalian cells. Compounds were tested using the KdELECT assay.
Kinase-tagged T7 phage strains were prepared in an E. coli host derived from the BL21 strain. E. coli were grown to log-phase and infected with T7 phage and incubated with shaking at 32° C. until lysis. The lysates were centrifuged and filtered to remove cell debris. The remaining kinases were produced in HEK-293 cells and subsequently tagged with DNA for qPCR detection. Streptavidin-coated magnetic beads were treated with biotinylated small molecule ligands for 30 minutes at room temperature to generate affinity resins for kinase assays. The liganded beads were blocked with excess biotin and washed with blocking buffer (SeaBlock (Pierce), 1% BSA, 0.05% Tween 20, 1 mM DTT) to remove unbound ligand and to reduce non-specific binding. Binding reactions were assembled by combining kinases, liganded affinity beads, and test compounds in 1× binding buffer (20% SeaBlock, 0.17× PBS, 0.05% Tween 20, 6 mM DTT). Test compounds were prepared as 111× stocks in 100% DMSO. Kd values were determined using an 11-point 3-fold compound dilution series with three DMSO control points. All compounds for Kd measurements are distributed by acoustic transfer (non-contact dispensing) in 100% DMSO. The compounds were then diluted directly into the assays such that the final concentration of DMSO was 0.9%. All reactions performed in polypropylene 384-well plate. Each was a final volume of 0.02 mL. The assay plates were incubated at room temperature with shaking for 1 hour and the affinity beads were washed with wash buffer (1× PBS, 0.05% Tween 20). The beads were then re-suspended in elution buffer (1× PBS, 0.05% Tween 20, 0.5 μM nonbiotinylated affinity ligand) and incubated at room temperature with shaking for 30 minutes. The kinase concentration in the eluates was measured by qPCR.

GSPT1 = molecular target: T2, GSPT1 (Homo sapiens, UniProt P15170+Q96SW2); test: GSPT1 HiBiT degradation assay; assay type: cell-based; conditions: HEK293 LgBiT GSPT1 HiBiT cells, 6 hours
T2 construct: host or cells: HEK293 LgBiT / GSPT1 HiBiT CRISPR knock-in
T2 sequence (P15170 whole entry): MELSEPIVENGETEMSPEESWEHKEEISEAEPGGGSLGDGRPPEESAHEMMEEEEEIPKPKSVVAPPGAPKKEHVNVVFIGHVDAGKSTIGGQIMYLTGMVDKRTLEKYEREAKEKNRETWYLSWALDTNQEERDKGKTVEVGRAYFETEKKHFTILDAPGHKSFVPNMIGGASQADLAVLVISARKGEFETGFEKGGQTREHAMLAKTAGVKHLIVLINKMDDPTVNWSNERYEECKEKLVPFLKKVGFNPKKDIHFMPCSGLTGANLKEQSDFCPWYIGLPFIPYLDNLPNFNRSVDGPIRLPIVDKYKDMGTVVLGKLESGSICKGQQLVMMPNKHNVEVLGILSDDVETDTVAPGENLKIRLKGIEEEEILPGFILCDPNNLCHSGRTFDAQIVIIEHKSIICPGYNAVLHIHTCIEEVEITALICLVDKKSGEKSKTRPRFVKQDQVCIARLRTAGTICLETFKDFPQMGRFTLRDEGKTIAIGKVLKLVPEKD
T2 sequence (Q96SW2 whole entry): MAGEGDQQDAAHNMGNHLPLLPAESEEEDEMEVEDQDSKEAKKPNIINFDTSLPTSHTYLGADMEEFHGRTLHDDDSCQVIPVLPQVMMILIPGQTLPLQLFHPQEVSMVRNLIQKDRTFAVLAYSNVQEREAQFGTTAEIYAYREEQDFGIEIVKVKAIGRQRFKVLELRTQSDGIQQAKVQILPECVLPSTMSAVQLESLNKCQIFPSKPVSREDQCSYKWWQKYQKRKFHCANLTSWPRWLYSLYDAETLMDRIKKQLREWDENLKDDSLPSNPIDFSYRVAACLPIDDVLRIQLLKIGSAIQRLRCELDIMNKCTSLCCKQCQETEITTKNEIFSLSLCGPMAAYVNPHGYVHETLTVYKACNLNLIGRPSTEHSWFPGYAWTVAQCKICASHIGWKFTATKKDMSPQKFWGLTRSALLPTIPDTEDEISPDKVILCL
T2 sequence (Q16531 whole entry partner): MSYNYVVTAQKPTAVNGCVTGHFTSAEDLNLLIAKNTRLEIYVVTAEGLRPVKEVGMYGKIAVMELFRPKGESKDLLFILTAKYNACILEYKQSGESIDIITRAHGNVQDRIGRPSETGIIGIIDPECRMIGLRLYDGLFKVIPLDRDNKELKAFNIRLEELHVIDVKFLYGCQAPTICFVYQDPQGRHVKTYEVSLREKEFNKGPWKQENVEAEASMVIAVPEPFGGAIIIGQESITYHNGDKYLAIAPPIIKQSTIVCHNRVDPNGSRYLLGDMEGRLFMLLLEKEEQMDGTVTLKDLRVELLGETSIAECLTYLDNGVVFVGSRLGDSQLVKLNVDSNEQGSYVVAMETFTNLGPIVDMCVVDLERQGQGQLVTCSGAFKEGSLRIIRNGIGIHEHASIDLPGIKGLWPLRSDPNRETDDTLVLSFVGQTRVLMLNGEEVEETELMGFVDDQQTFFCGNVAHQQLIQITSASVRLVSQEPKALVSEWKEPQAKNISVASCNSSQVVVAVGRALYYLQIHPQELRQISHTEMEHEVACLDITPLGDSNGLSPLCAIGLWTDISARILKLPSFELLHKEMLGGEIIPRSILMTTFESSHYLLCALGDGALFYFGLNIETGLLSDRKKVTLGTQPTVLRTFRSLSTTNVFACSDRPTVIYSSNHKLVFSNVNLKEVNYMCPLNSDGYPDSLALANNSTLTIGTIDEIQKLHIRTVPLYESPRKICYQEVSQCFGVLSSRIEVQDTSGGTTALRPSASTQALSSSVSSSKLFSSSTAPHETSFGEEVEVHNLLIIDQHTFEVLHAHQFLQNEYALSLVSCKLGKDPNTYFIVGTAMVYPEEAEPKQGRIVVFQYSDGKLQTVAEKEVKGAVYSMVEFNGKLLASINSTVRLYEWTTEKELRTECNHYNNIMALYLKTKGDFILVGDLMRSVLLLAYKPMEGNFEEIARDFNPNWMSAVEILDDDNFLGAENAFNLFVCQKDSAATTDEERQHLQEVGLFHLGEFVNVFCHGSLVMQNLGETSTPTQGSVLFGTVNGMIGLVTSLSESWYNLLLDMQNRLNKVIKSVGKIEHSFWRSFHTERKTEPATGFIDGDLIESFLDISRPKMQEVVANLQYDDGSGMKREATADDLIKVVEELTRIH
Summary of the method: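 HEK293 CRISPR knock-in cells expressing LgBiT and GSPT1-HiBiT were seeded at 1000 cells/well and, after 18-24 h, treated with titrated compound plus endurazine (0.5× final) at 37 °C. Luminescence read after 6 h; loss of signal reflects GSPT1 degradation, giving DC50.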

[2] = test system: HEK293 cells (ATCC CRL-1573); test: Cellular growth inhibition assay, HEK293 cells (Example 16); assay type: cell-based; conditions: Homo sapiens, 72 hours, CellTiter-Glo 2.0
HeLa cells (ATCC CCL-2) = test: Cellular growth inhibition assay, HeLa cells (Example 16); assay type: cell-based; conditions: Homo sapiens, 72 hours, CellTiter-Glo 2.0

T1 sequence (Q06187 whole entry, the tested form may be a part): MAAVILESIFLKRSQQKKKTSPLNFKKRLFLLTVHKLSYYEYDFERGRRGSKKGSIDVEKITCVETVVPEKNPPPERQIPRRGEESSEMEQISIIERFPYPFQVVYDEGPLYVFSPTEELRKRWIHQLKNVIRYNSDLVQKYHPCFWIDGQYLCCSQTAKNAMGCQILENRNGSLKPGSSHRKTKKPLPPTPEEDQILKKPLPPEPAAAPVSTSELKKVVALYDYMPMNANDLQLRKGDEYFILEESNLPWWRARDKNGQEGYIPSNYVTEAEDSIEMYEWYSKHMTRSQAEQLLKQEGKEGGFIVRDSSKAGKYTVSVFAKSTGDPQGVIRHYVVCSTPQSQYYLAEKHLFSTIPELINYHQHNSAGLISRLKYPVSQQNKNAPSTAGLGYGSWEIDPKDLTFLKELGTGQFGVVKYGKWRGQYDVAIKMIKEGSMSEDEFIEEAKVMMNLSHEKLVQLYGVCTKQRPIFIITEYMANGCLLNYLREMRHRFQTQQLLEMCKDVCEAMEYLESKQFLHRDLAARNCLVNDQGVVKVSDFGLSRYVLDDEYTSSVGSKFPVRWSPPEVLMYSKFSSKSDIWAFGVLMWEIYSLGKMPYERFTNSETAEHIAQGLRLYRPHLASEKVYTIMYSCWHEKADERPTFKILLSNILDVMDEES

Row | Compound | Kd [1] [nM] | DC50 (GSPT1) [nM] | GI50 (HeLa cells (ATCC CCL-2)) [nM] | GI50 [2] [nM]
1 | C=C(CN1C(=O)CCC(N2Cc3cc(CNC(=O)Nc4ccc(C)c(Cl)c4)ccc3C2=O)C1=O)C(=O)N1CCC[C@@H](n2nc(-c3ccc(Oc4ccccc4)cc3)c3c(N)ncnc32)C1 (stereo partly drawn) [Compound I-3, 1-[[2-[1-[2-[(3R)-3-[4-amino-3-(4-phenoxyphenyl)pyrazolo[3,4-d]pyrimidin-1-yl]piperidine-1-carbonyl]allyl]-2,6-dioxo-3-piperidyl]-1-oxo-isoindolin-5-yl]methyl]-3-(3-chloro-4-methyl-phenyl)urea] | 500 to 2500 | > 2500 |  | 
2 | C=C(CN(Cc1ccc2c(c1)CN(C1CCC(=O)NC1=O)C2=O)C(=O)Nc1ccc(C)c(Cl)c1)C(=O)N1CCC[C@@H](n2nc(-c3ccc(Oc4ccccc4)cc3)c3c(N)ncnc32)C1 (some centres unmarked) [Compound I-31] | 500 to 2500 | > 2500 | > 10000 | > 10000

Now from value to compound, other results behind:

Row | Kd [1] [nM] | DC50 (GSPT1) [nM] | GI50 (HeLa cells (ATCC CCL-2)) [nM] | Compound | GI50 [2] [nM]
3 | 500 to 2500 | > 2500 | > 10000 | C=C(CN(C(=O)NCc1ccc2c(c1)CN(C1CCC(=O)NC1=O)C2=O)c1ccc(C(F)(F)F)c(Cl)c1)C(=O)N1CCC[C@@H](n2nc(-c3ccc(Oc4ccccc4)cc3)c3c(N)ncnc32)C1 (some centres unmarked) [Compound I-38] | > 10000
4 | < 50 | 500 to 2500 | 1500 to 10000 | C=C(COc1cc(Cl)cc(NC(=O)NCc2ccc3c(c2)CN(C2CCC(=O)NC2=O)C3=O)c1)C(=O)N1CCC[C@@H](n2nc(-c3ccc(Oc4ccccc4)cc3)c3c(N)ncnc32)C1 (some centres unmarked) [Compound I-114] | 500 to 1500
5 | 50 to 500 |  | 500 to 1500 | C=C(COc1ccc(Cl)cc1NC(=O)NCc1ccc2c(c1)CN(C1CCC(=O)NC1=O)C2=O)C(=O)N1CCC[C@@H](n2nc(-c3ccc(Oc4ccccc4)cc3)c3c(N)ncnc32)C1 (some centres unmarked) [I-32] | 500 to 1500
